Measurements as given in PubChem BioAssay (NCI).
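The compound was tested at five concentrations on cells cultured in 96-well plates, with a 48-hour exposure period. GI50 marks 50% less growth. TGI denotes the concentration required for complete inhibition of growth.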

What was measured:
Assay in all cases: NCI anticancer screen, dose series, 48 h
CAKI-1 renal = tested on: CAKI-1 renal
DU-145 prostate = tested on: DU-145 prostate
HT29 colon = tested on: HT29 colon
LOX IMVI melanoma = tested on: LOX IMVI melanoma
NCI-H226 lung = tested on: NCI-H226 lung
NCI-H23 lung = tested on: NCI-H23 lung
OVCAR-8 ovarian = tested on: OVCAR-8 ovarian
SNB-19 CNS = tested on: SNB-19 CNS
U251 CNS = tested on: U251 CNS
RXF 393 renal = tested on: RXF 393 renal

Structure (SMILES)	TGI (CAKI-1 renal) [µM]	TGI (DU-145 prostate) [µM]	TGI (HT29 colon) [µM]	TGI (LOX IMVI melanoma) [µM]	TGI (NCI-H226 lung) [µM]	TGI (NCI-H23 lung) [µM]	TGI (OVCAR-8 ovarian) [µM]	TGI (SNB-19 CNS) [µM]	TGI (U251 CNS) [µM]	TGI (RXF 393 renal) [µM]	GI50 (CAKI-1 renal) [µM]	GI50 (HT29 colon) [µM]	GI50 (LOX IMVI melanoma) [µM]	GI50 (NCI-H23 lung) [µM]	GI50 (OVCAR-8 ovarian) [µM]	GI50 (RXF 393 renal) [µM]	GI50 (SNB-19 CNS) [µM]	GI50 (U251 CNS) [µM]	GI50 (NCI-H226 lung) [µM]
CC(C)(O)C1OCC(C2CCC3(C)C4=CCC5C(C)(C)C(O)CCC5(C)C4CCC23C)CC1O (stereo unspecified)	29.4	31.1	25.7	42.7	27.9	81.3	27.9	36.9	27.5	–	–	–	–	–	–	–	–	–	–
CC(=O)OC(C)(C)/C=C/C(=O)[C@](C)(O)[C@H]1[C@H](O)C[C@@]2(C)[C@@H]3CC=C4[C@@H](C[C@H](O)C(=O)C4(C)C)[C@]3(C)C(=O)C[C@]12C	< 0.01	1.05	–	< 0.01	–	4.07	5.8	0.153	< 0.01	< 0.0128	–	–	–	–	–	–	–	–	–
COc1ccc2ccc([Se]c3ccc4ccc(OC)cc4c3)cc2c1	> 100	–	> 100	> 100	> 100	> 100	98.2	68.8	99.2	> 100	–	–	–	–	–	–	–	–	–
O=S1(=O)C[C@@H](O)[C@H](O)CS1	> 100	–	> 100	> 100	> 100	> 100	> 100	> 100	> 100	> 100	–	–	–	–	–	–	–	–	–
CCOP(=O)(OCC)/C(C#N)=C/c1ccco1	> 100	–	> 100	> 100	> 100	> 100	> 100	–	> 100	–	–	–	–	–	–	–	–	–	–
CC[N+](CC)(CC)CCCn1c2c(c3ccccc3c1=O)C(=O)c1ccccc1-2	30.9	–	> 100	> 100	–	6.42	22.8	> 100	> 100	17.6	3.74	6.3	4.63	2.31	3.66	0.056	31.6	4.77	–
CN(c1ccccc1)C(c1ccccc1)C(O)c1ccccc1 (stereo unspecified)	47.7	–	32.9	31.7	–	40.4	36	36.4	33.2	–	–	–	–	–	–	–	–	–	–
COC(=O)c1ccc(N=NN(C)CO)cc1	–	–	> 100	> 100	> 100	> 100	> 100	> 100	> 100	> 100	–	–	–	–	–	–	–	–	–
CC1NOC(=O)C1N=Nc1ccccc1Cl (stereo unspecified)	> 100	–	–	> 100	–	> 100	> 100	> 100	> 100	> 100	–	–	–	–	–	–	–	–	–
CC(=O)Nc1ccc(C2[C@H]3C(=O)N(c4ccc(Cc5ccc(N6C(=O)[C@@H]7ON(c8ccccc8)C(c8ccc(NC(C)=O)cc8)[C@@H]7C6=O)cc5)cc4)C(=O)[C@H]3ON2c2ccccc2)cc1 (stereo partly specified)	> 100	–	> 100	> 100	> 100	> 100	> 100	> 100	> 100	> 100	–	–	–	–	–	–	–	–	–
CC(=O)OCC1OC(n2c(=O)n(-c3ccccc3)c(=O)c3ccccc32)C(OC(C)=O)C(OC(C)=O)C1OC(C)=O (stereo unspecified)	> 100	–	> 100	> 100	> 100	> 100	> 100	> 100	> 100	> 100	–	–	–	–	–	–	–	–	–
COC(=O)C1=C(O)C(O)=C(C(=O)OC)C1	> 100	–	> 100	> 100	> 100	> 100	> 100	> 100	> 100	> 100	–	–	–	–	–	–	–	–	–
COC[n+]1cc2cc(OC)c(OC)cc2c2ccc3cc(OC)c(OC)cc3c21	> 100	–	> 100	> 100	> 100	> 100	> 100	> 100	> 100	> 100	–	–	–	–	–	–	–	–	–
O=C(CCCn1ccnc1[N+](=O)[O-])NCCn1ccnc1	> 100	> 100	> 100	–	> 100	> 100	> 100	> 100	> 100	–	–	–	–	–	–	–	–	–	–
COC(=O)C(Nc1ccc(OC)cc1)c1ccccc1 (stereo unspecified)	> 100	> 100	> 100	> 100	–	> 100	> 100	> 100	–	–	–	–	–	–	–	–	–	–	–
COC(=O)c1nc(NC#N)[nH]c(=O)c1C	> 100	–	> 100	> 100	–	> 100	> 100	> 100	> 100	> 100	–	–	–	–	–	–	–	–	–
CS(=O)c1ccc(COP(N)(=O)N(CCCl)CCCl)cc1 (stereo unspecified)	> 100	–	> 100	> 100	> 100	> 100	> 100	> 100	> 100	> 100	–	–	–	–	–	–	–	–	–
COc1ccc(/C=C2/C[N+](C)(C)C/C(=C/c3ccc(OC)cc3)C2=O)cc1	> 100	–	> 100	> 100	> 100	> 100	> 100	> 100	> 63.9	> 100	–	–	–	–	–	–	–	–	–
O=C1OC2(c3ccccc3Oc3ccccc32)c2ccccc21	> 100	–	> 100	> 100	> 100	> 100	> 100	> 100	> 100	–	–	–	–	–	–	–	–	–	–
[N-]=[N+]=NC1C(Br)C(=O)NC(=O)N1[C@H]1C[C@H](O)[C@@H](CO)O1 (stereo partly specified)	> 100	–	> 100	> 100	–	> 100	> 100	> 100	> 100	> 100	66.3	–	–	–	–	–	–	–	–
O=C([CH-]C(=O)c1ccccc1)c1ccccc1.O=C([CH-]C(=O)c1ccccc1)c1ccccc1.[Nd+3].[OH-].[OH3+]	40.9	–	26.2	–	8.28	18.6	38.4	44.9	40.3	–	13.6	8.8	–	3.91	4.74	–	8.19	7.13	1.94
COc1ccc2[nH]c(Cl)c(/C=C3/C(=O)N(C)c4ccccc43)c2c1	> 100	–	> 100	> 100	> 100	> 100	> 100	> 100	> 100	> 100	> 100	> 100	> 100	> 100	> 100	> 100	48.9	> 100	29.4
